# In US5973201A, “Phenylacetamide derivatives” (Korea Research Institute of Chemical Technology, priority 1995, dated 1999):
# How the values were obtained:
# [1] = acetic acid-induced writhing test (analgesic effect); assay type: in vivo, KTC-ICR rats; conditions: Mus musculus
# Procedure: (§1) The physiological activities of the compounds of the present invention prepared according to Example 1 to 6 were measured by employing acetic acid or phenyl-1,4-benzoquinone (PBQ) induced writhing test method.
# (§2) In case of the acetic acid-induced writhing test, KTC-ICR […] (available from animal laboratory of Korea Research Institute of Chemical Technology) each having a body weight of 20-25 g were used, while in the PBQ induced writhing test, KTC-ICR […] each having a body weight of 14-18 g were employed. A group consisting of 8 mice which had been adjusted to the testing environment for a week were used in determining the effects of each dosage of a test compound. Water and food were given frelly and illumination was maintained on a 12-hour cycle.
# (§3) Test solutions were prepared by dissolving one of the final products obtained in Examples 1 to 6 in distilled water containing 1% of Tween and 5% ethanol in a pre-determined concentration. The test solutions were used after serial dilution depending on each dosage.
# (§4) The test solutions were […] administered in a dose of 0.1 ml per 10 g of a body weight. 0.1 ml of 1% acetic acid solution or 0.1 ml of 0.02% PBQ solution was administered […] or after 30 minutes in case of subcutaneous injection.
# (§5) Then, the number of writhings generated during a period of 10 minutes after 3 minutes from the administration of acetic acid was measured. in case of the administration of PBQ, the number of writhings generated during a period of 5 minutes after 5 minutes from the administration was measured.
# (§6) For a comparison purpose, initially, distilled water containing 1% of Tween and 5% ethanol alone was administered to the control group. Then, the control groups were subjeted the same procedure as the test groups.
# (§7) The number of writhings suffered by the test group was compared with that of the control group; and the analgesic effect was measured in terms of the percentage of inhibition of writhing (I.W.). [formula] wherein: A is the number of writhings suffered by the control group; and
# (§8) B is the number of writhings suffered by the test group.
# (§9) I.W. values for each dosage were calculated by employing regression analysis. The amount of a test compound which is required in reducing the frequency of writhings to the 50% level of that generated by the control group, i.e., B=0.5A or I.W.=50%, is designated as ED50 (mg/kg of a body weight). Therefore, a lower value of ED50 represents a higher analgesic effect of the tested compound.
# [2] = phenyl-1,4-benzoquinone (PBQ) induced writhing test (analgesic effect); assay type: in vivo, KTC-ICR rats; conditions: Mus musculus
# Procedure: as §1, §2, §3, §4, §5, §6, §7, §8, §9
# [3] = Toxicity test: behavioral changes in the test animals; assay type: in vivo; conditions: score; for Convulsion / Salivation / Urination: normal value 0; for Dyspnoea / Ptosis / Sedation / Vasodilation: normal value 4
# [4] = acetic acid, dose reducing writhing to 50% of control, read-out: ED50
# [5] = PBQ, dose reducing writhing to 50% of control, read-out: ED50
smiles,measurement,setting,value
"CCCCCCCC/C=C\CCCCCCCC(=O)NCc1ccc(OCCN)c(OC)c1 [NE-21610, reference compound]",ED50,[1]; [4],> 300 mg/kg
same,ED50,[2]; [5],38.3 mg/kg
"COc1cc(CC(=O)NCCOCc2ccc(C)c(C)c2)ccc1O [Example 4, N-{2-(3,4-dimethylbenzyloxy)ethyl}-4-hydroxy-3-methoxyphenylacetamide]",ED50,[1]; [4],2.08 mg/kg
same,Convulsion,[3]; 1.25 mg/kg,0
same,Salivation,[3]; 1.25 mg/kg,0
same,Urination,[3]; 1.25 mg/kg,0
same,Dyspnoea,[3]; 1.25 mg/kg,4
same,Ptosis,[3]; 1.25 mg/kg,4
same,Sedation,[3]; 1.25 mg/kg,4
same,Vasodilation,[3]; 1.25 mg/kg,4
same,Convulsion,[3]; 2.5 mg/kg,0
same,Salivation,[3]; 2.5 mg/kg,0
same,Urination,[3]; 2.5 mg/kg,0
same,Dyspnoea,[3]; 2.5 mg/kg,5
same,Ptosis,[3]; 2.5 mg/kg,6
same,Sedation,[3]; 2.5 mg/kg,6
same,Vasodilation,[3]; 2.5 mg/kg,4
same,Convulsion,[3]; 5 mg/kg,0
same,Salivation,[3]; 5 mg/kg,0
same,Urination,[3]; 5 mg/kg,0
same,Dyspnoea,[3]; 5 mg/kg,6
same,Ptosis,[3]; 5 mg/kg,7
same,Sedation,[3]; 5 mg/kg,7
same,Vasodilation,[3]; 5 mg/kg,5
"COc1cc(CC(=O)NCCSc2ccc(C)cc2)ccc1OCCN [Example 5, N-{2-(4-methylthiophenoxy)ethyl}-4-(2-aminoethoxy)-3-methoxyphenylacetamide]",ED50,[1]; [4],0.84 mg/kg
same,Convulsion,[3]; 0.63 mg/kg,0
same,Salivation,[3]; 0.63 mg/kg,0
same,Urination,[3]; 0.63 mg/kg,0
same,Dyspnoea,[3]; 0.63 mg/kg,4
same,Ptosis,[3]; 0.63 mg/kg,4
same,Sedation,[3]; 0.63 mg/kg,4
same,Vasodilation,[3]; 0.63 mg/kg,4
same,Convulsion,[3]; 1.25 mg/kg,0
same,Salivation,[3]; 1.25 mg/kg,0
same,Urination,[3]; 1.25 mg/kg,0
same,Dyspnoea,[3]; 1.25 mg/kg,6
same,Ptosis,[3]; 1.25 mg/kg,6
same,Sedation,[3]; 1.25 mg/kg,6
same,Vasodilation,[3]; 1.25 mg/kg,4
same,Convulsion,[3]; 2.5 mg/kg,0
same,Salivation,[3]; 2.5 mg/kg,0
same,Urination,[3]; 2.5 mg/kg,0
same,Dyspnoea,[3]; 2.5 mg/kg,6
same,Ptosis,[3]; 2.5 mg/kg,6
same,Sedation,[3]; 2.5 mg/kg,7
same,Vasodilation,[3]; 2.5 mg/kg,5
COc1ccc2cc([C@H](C)C(=O)O)ccc2c1 [Naproxen],ED50,[2]; [5],17.1 mg/kg
"COc1cc(CC(=O)NCCOc2ccc(C)c(C)c2)ccc1OCCN [Example 1, N-{2-(3,4-dimethylphenoxy)ethyl}-4-(2-aminoethoxy)-3-methoxyphenylacetamide]",ED50,[2]; [5],9.53 mg/kg
"CCCCCCCC/C=C\CCCCCCCC(=O)NCc1ccc(O)c(OC)c1 [NE-19550, Nvanillyloleamide, reference compound]",ED50,[1],15.7 mg/kg
"CC(=O)Oc1ccccc1C(=O)O [Aspirin, acetylsalicylic acid]",ED50,[2],71.4 mg/kg
CCCCC1C(=O)N(c2ccccc2)N(c2ccccc2)C1=O [Phenylbutazone],ED50,[2]; [5],79.8 mg/kg
"COc1cc(CC(=O)NCCSc2ccc(C)c(C)c2)ccc1OCCN [Example 6, N-{2-(3,4-dimethylthiophenoxy)ethyl}-4-(2-aminoethoxy)-3-methoxyphenylacetarnide]",ED50,[1]; [4],0.48 mg/kg
same,Convulsion,[3]; 0.31 mg/kg,0
same,Salivation,[3]; 0.31 mg/kg,0
same,Urination,[3]; 0.31 mg/kg,0
same,Dyspnoea,[3]; 0.31 mg/kg,4
same,Ptosis,[3]; 0.31 mg/kg,4
same,Sedation,[3]; 0.31 mg/kg,4
same,Vasodilation,[3]; 0.31 mg/kg,4
same,Convulsion,[3]; 0.63 mg/kg,0
same,Salivation,[3]; 0.63 mg/kg,0
same,Urination,[3]; 0.63 mg/kg,0
same,Dyspnoea,[3]; 0.63 mg/kg,4
same,Ptosis,[3]; 0.63 mg/kg,5
same,Sedation,[3]; 0.63 mg/kg,6
same,Vasodilation,[3]; 0.63 mg/kg,4
same,Convulsion,[3]; 1.25 mg/kg,0
same,Salivation,[3]; 1.25 mg/kg,0
same,Urination,[3]; 1.25 mg/kg,0
same,Dyspnoea,[3]; 1.25 mg/kg,6
same,Ptosis,[3]; 1.25 mg/kg,6
same,Sedation,[3]; 1.25 mg/kg,6
same,Vasodilation,[3]; 1.25 mg/kg,5
"COc1cc(CNC(=O)CCCC/C=C/C(C)C)ccc1O [Capsaicin, N-vanillyl-trans-8-methyl-6-nonenamide, reference compound]",ED50,[1],1.34 mg/kg
"COc1cc(CC(=O)NCCCOc2ccc(C)c(C)c2)ccc1OCCN [Example 2, N-{3-(3,4-dimethylphenoxy)propyl}-4-(2-aminoethoxy)-3-methoxyphenylacetamide]",ED50,[2]; [5],7.02 mg/kg
same,Convulsion,[3]; 2.5 mg/kg,0
same,Salivation,[3]; 2.5 mg/kg,0
same,Urination,[3]; 2.5 mg/kg,0
same,Dyspnoea,[3]; 2.5 mg/kg,4
same,Ptosis,[3]; 2.5 mg/kg,4
same,Sedation,[3]; 2.5 mg/kg,4
same,Vasodilation,[3]; 2.5 mg/kg,4
same,Convulsion,[3]; 5 mg/kg,0
same,Salivation,[3]; 5 mg/kg,0
same,Urination,[3]; 5 mg/kg,0
same,Dyspnoea,[3]; 5 mg/kg,5
same,Ptosis,[3]; 5 mg/kg,6
same,Sedation,[3]; 5 mg/kg,6
same,Vasodilation,[3]; 5 mg/kg,5
same,Convulsion,[3]; 10 mg/kg,0
same,Salivation,[3]; 10 mg/kg,0
same,Urination,[3]; 10 mg/kg,0
same,Dyspnoea,[3]; 10 mg/kg,7
same,Ptosis,[3]; 10 mg/kg,6
same,Sedation,[3]; 10 mg/kg,7
same,Vasodilation,[3]; 10 mg/kg,6
"COc1cc(CC(=O)NCCOCc2ccc(C)c(C)c2)ccc1OCCN [Example 3, N-{2-(3,4-dimethylbenzyloxy)ethyl}-4-(2-aminoethoxy)-3-methoxyphenylacetamide]",ED50,[2]; [5],10.9 mg/kg
same,Convulsion,[3]; 5 mg/kg,0
same,Salivation,[3]; 5 mg/kg,0
same,Urination,[3]; 5 mg/kg,0
same,Dyspnoea,[3]; 5 mg/kg,4
same,Ptosis,[3]; 5 mg/kg,4
same,Sedation,[3]; 5 mg/kg,4
same,Vasodilation,[3]; 5 mg/kg,4
same,Convulsion,[3]; 10 mg/kg,0
same,Salivation,[3]; 10 mg/kg,0
same,Urination,[3]; 10 mg/kg,0
same,Dyspnoea,[3]; 10 mg/kg,4
same,Ptosis,[3]; 10 mg/kg,4
same,Sedation,[3]; 10 mg/kg,4
same,Vasodilation,[3]; 10 mg/kg,4
same,Convulsion,[3]; 20 mg/kg,0
same,Salivation,[3]; 20 mg/kg,0
same,Urination,[3]; 20 mg/kg,0
same,Dyspnoea,[3]; 20 mg/kg,4
same,Ptosis,[3]; 20 mg/kg,5
same,Sedation,[3]; 20 mg/kg,5
same,Vasodilation,[3]; 20 mg/kg,4
CC(C)Cc1ccc(C(C)C(=O)O)cc1 (centres unmarked) [Ibuprofen],ED50,[2]; [5],11 mg/kg
"COc1cc(CC(=O)NCCCc2ccc(C)c(C)c2)ccc1OCCN [Control, reference compound]",Convulsion,[3]; 0.25 mg/kg,1
same,Salivation,[3]; 0.25 mg/kg,0
same,Urination,[3]; 0.25 mg/kg,0
same,Dyspnoea,[3]; 0.25 mg/kg,5
same,Ptosis,[3]; 0.25 mg/kg,6
same,Sedation,[3]; 0.25 mg/kg,6
same,Vasodilation,[3]; 0.25 mg/kg,5
same,Convulsion,[3]; 0.5 mg/kg,1
same,Salivation,[3]; 0.5 mg/kg,0
same,Urination,[3]; 0.5 mg/kg,0
same,Dyspnoea,[3]; 0.5 mg/kg,6
same,Ptosis,[3]; 0.5 mg/kg,7
same,Sedation,[3]; 0.5 mg/kg,7
same,Vasodilation,[3]; 0.5 mg/kg,5
same,Convulsion,[3]; 1 mg/kg,1
same,Salivation,[3]; 1 mg/kg,0
same,Urination,[3]; 1 mg/kg,0
same,Dyspnoea,[3]; 1 mg/kg,6
same,Ptosis,[3]; 1 mg/kg,7
same,Sedation,[3]; 1 mg/kg,7
same,Vasodilation,[3]; 1 mg/kg,6
